Assay results published in patent US10159656B2, “Methods for use of epinephrine fine particles for treatment of conditions responsive to epinephrine” (NOVA SOUTHEASTERN UNIVERSITY, priority 2013, dated 2018).

Columns and labels:
[1] = one cycle at 30,000 Psi
Protocol: The processed EpiBit were tested for stability and removal of isopropyl alcohol using FT-IR spectrometer, spectrum 100 (PerkinElmer, Waltham, Mass.) scanned from 4000-650 cm^−1.

[2] = one cycle at 30,000 Psi; remark: listed apart in the source
Protocol: Also, the processed EpiBit were tested for purity, stability, and crystallinity changes using Differential Scanning calorimetry (DSC) 4000 (PerkinElmer, Waltham, Mass.) that was calibrated using an indium standard and heated from 30 to 300° C. at rate of 10° C./min and with a nitrogen purge of 20 mL/min.

[3] = after processing, one cycle at 30,000 Psi
[4] = Protocol: The average particles size (by volume) of EpiBit before processing was measured using laser diffraction technique using Mastersizer (Malvern Instruments Inc, Westborough, Mass.).
[5] = EpiBit before processing, by volume, n=6, text
[6] = EpiBit before processing, by volume, listed as EpiBit crystals before processing

For `CNC[C@H](O)c1ccc(O)c(O)c1.O=C(O)C(O)C(O)C(=O)O` [EpiBit After Processing, epinephrine bitartrate microcrystals], the “degradation after processing (FT-IR spectra before and after)” value [1] was “no evidence of EpiBit degradation after processing”, the “degradation or crystallinity change after processing (DSC)” value [2] was “no evidence of EpiBit degradation or crystallinity change after processing” and the “particles size distribution by intensity” value ([3]; n=3) was 2.4±0.4 μm. For the same compound, the “particles size distribution by volume” value ([3]; n=3) was 2.5±0.4 μm and the Z-potential ([3]; listed as EpiBit crystals after processing) was −4.5±1.4 mV.

With `CNC[C@H](O)c1ccc(O)c(O)c1.O=C(O)C(O)C(O)C(=O)O` [EpiBit Before Processing, (−)-Epinephrine (+) bitartrate] the “10th percentile (Dv0.1) particle size” value [4, 5] was 39.8±3.0 nm, the “median (Dv0.5) particle size” value [4, 5] was 113.6±9.1 nm and the “D (4, 3) mean volume particle size” value [4, 6] was 131.8±10.5 μm. For the same compound, the “D(0.9) particle size” value [4, 6] was 254.8±20.1 μm and the “reduction of particles size of EpiBit crystals” value ([4]; after versus before processing) was “up to 55 folds”.
